For 23 compounds, logP results are on record in the SangsterLogP compilation.

As usually defined, the logP is the decadic logarithm of the partition coefficient of the neutral form, usually between octanol and water. Low values mean lower lipophilicity, high ones higher lipophilicity.

Take `CC(=O)Nc1ccccc1C(=O)O`: the lipophilicity (logP) was 1.73.

As for `Cc1ccccc1C=O`, the logP was determined as 2.26.

`CSc1ccccc1N` registered a logP of 1.2.

In turn, `Nc1ccc(Oc2ccccc2)cc1` had a logP of 2.36.

As for `CC(=O)Oc1ccc(C)cc1`, the logP stood at 2.11.

Take `CSc1ccc(O)cc1`: the logP worked out at 1.78.

In the case of `COc1ccccc1Oc1ccccc1`, the log partition coefficient (logP) turned out to be 2.92.

In turn, `Cc1cccc(N(C)C)c1` came in with a log partition coefficient (logP) of 2.8.

Turning to `CS(=O)(=O)c1ccc(N)cc1`, the logP is -0.12.

For `COc1ccc(N(C)C)cc1`, the log partition coefficient (logP) came out at 1.42.

Take `N#Cc1ccccc1O`: the logP came out at 1.59.

For `Oc1cccc(-c2ccccc2)c1`, the logP is 3.23.

In turn, `Nc1ccccc1Oc1ccccc1` came in with a logP of 2.46.

For `O=C(O)Cc1ccc(C(F)(F)F)cc1`, the lipophilicity (logP) is 2.45.

In the case of `CC(=O)Nc1ccccc1O`, the logP turned out to be 0.72.

`O=C(O)c1ccc(Oc2ccccc2)cc1` had a lipophilicity (logP) of 3.21.

`CSc1cccc(N)c1` displayed a logP of 1.45.

On to `CC(=O)Oc1cccc(C)c1`, for which the logP worked out at 2.09.

`CSc1ccc(C(=O)O)cc1` displayed a logP of 2.74.

As for `COc1ccccc1N(C)C`, the logP was found to be 1.63.

For `CC(=O)Nc1cccc(O)c1`, the log partition coefficient (logP) came to 0.73.

The compound `O=Cc1ccc(OCC(=O)O)cc1` yielded a logP of 0.79. The logP values of the last two compounds are within 0.2 log units of each other.

In turn, `CS(=O)(=O)c1ccc(C(=O)O)cc1` registered a logP of 0.67.
